Results reported in article PMC11206691, “N-Hydroxypiridinedione: A Privileged Heterocycle for Targeting the HBV RNase H” (Molecules, 2024).
Read-outs that look alike come from different tables or passages of the source.

Key:
HBV replication [1] = details: Figures 1 and 2, earlier inhibitors; cited from earlier work
HepDES19 cells [2] = test system: HepDES19 cells; set-up: method as in PMID 28450058, PMID 28633989, PMID 29565562, PMID 30768944; details: Figures 1 and 2, earlier inhibitors; cited from earlier work
HBV replication [3] = experiment: qPCR HBV replication inhibition assay in HepDES19 cells; type: cell-based, Hepatitis B virus (HBV) genotype D; details: Hepatitis B virus, 72 h, (+) DNA qPCR, read-out: EC50
Protocol: (§1) HepDES19 cells were incubated on collagen-coated plates at 37 °C with 5% CO2 and saturating humidity in Dulbecco’s modified Eagle’s medium (DMEM/F12) (Cytiva Life Sciences, Marlborough, MA, USA) supplemented with 10% fetal bovine serum (FBS), penicillin (100 IU/mL), and streptomycin (100 µg/mL). HepDES19 cells are HepG2 cells that carry a stably transfected HBV genotype D genome under the control of a tetracycline repressible promoter. Cells were maintained in the presence of 1 µg/mL tetracycline to repress the expression of the stably integrated HBV genome, and HBV replication was induced by the withdrawal of tetracycline from the culture medium.
HBV replication inhibition was measured in HepDES19 cells induced to replicate HBV by the removal of tetracycline using a strand-preferential quantitative PCR assay as previously described. Cells were seeded at 4 × 10^4 cells/well in 96-well plates for 48 h. Serially diluted compound was then added to cells at a final concentration of 1% DMSO for 72 h, after which the cells were lysed and qPCR was performed as described in Li et al.. EC50 values were calculated from the (+) DNA data with GraphPad Prism using the four-parameter log (inhibitor) versus response algorithm with the bottom value set to zero. Three or more replicate assays were performed on different days.

MTS cytotoxicity assay = type: cell-based; details: human, HepDES19 cells
Protocol: as §1
(§2) Cell viability was assessed using the CellTiter 96^TM Aqueous Non-Radioactive Cell Proliferation assay (MTS) (Promega, Madison, WI, USA) as described previously. HepDES19 cells were seeded at 1 × 10^4 cells per well in 96-well, and compound was added after 48 h. Cells incubated with serially diluted compound (1% DMSO) for 72 h. Bac absorbance values were subtracted, and data were converted to percent cell viability. The cytotoxic concentration 50% (CC50) values were calculated with GraphPad Prism by using the four-parameter variable response log (inhibitor) versus response algorithm with the bottom value set to zero. Three or more replicate assays were performed on different days.

[4] = Solubility limit assay (turbidity, DMEM-F12 + 10% FBS); type: physicochemical; details: DMEM-F12 without phenol red with 10% FBS, plasma or biological fluid, kinetic from dmso stock; pH 7.4, DMEM-F12 with 10% FBS, 1% DMSO, upper limit 200 µM
Protocol: Compound solubility limits were tested in DMEM-F12 without phenol red (Gibco, Grand Island, NY, USA) supplemented with 10% FBS (pH 7.2–7.4) to mimic cell culture experiments, as we have performed previously. Compounds were serially diluted in buffer at pH 7.4 in 384-well, optically clear plates (upper limit 200 µM, DMSO 1%) and read on a plate reader at 620 nm. Compound concentration (µM) was plotted against optical density (OD) and a solubility limit was determined by identifying an inflection point where there was a significant increase in optical density due to increasing turbidity; the concentration of the compound at the inflection point was defined as the solubility limit. Two or more replicate assays were performed on different days for each compound.

[5] = Parallel artificial membrane permeability assay; type: in vitro ADME; details: PAMPA; for Papp interpretation (high/low permeability category) at 2 h, 200 µM: pH 7.4, pH 7.4; for Papp at 2 h, 200 µM: pH 7.4, pH 7.4, 200 μM, room temperature
Protocol: Apparent passive permeability (Papp) was assessed at pH 7.4 using a 96-well donor/acceptor cassette (Sigma Aldrich, Burlington, MA, USA), which mimics the apical and basolateral sides of the small intestine epithelium, as we have described previously. Briefly, an artificial membrane composed of 1% w/v lethicin/dodecane was added to the poly (vinylidene fluoride) (PVDF) membrane filter. Once dry, compounds (200 μM) were diluted in buffer at pH 7.4 and added to the donor side of the membrane, and the same pH buffer was added to the acceptor side. The cassette was assembled and incubated at room temperature with shaking at 250 rpm for 2 h, after which 100 μL of the acceptor well was retrieved and the experimental compound absorbance was read on a plate reader between 200 and 600 nm. Compound Papps (cm/s) values were determined by normalizing to the compound absorbance at equilibrium, incubation time, and membrane porosity Two or more replicate assays were conducted on different days.

HepDES19 cells [6] = experiment: MTS cytotoxicity assay; type: cell-based; details: 72 h
Protocol: as §1, §2

Row | SMILES | EC50 (HBV replication [1]) | CC50 (HepDES19 cells [2]) | EC50 (HBV replication [3]) | CC50 at 72 h (MTS cytotoxicity assay) | melting point | solubility [4] | Papp interpretation (high/low permeability category) at 2 h, 200 µM [5] | Papp at 2 h, 200 µM [5] | CC50 (HepDES19 cells [6])
1 | COc1ccc(CON=C(C)c2c(C)cc(=O)n(O)c2O)cc1 [A24] | 0.29 µM | 102 µM | – | – | – | – | – | – | –
2 | CC(=NOC(C)c1ccccc1)c1c(C)cc(=O)n(O)c1O (stereo not drawn) [Compound 46, 1,6-Dihydroxy-4-methyl-5-(1-((1-phenylethoxy)imino)ethyl)pyridin-2(1H)-one] | – | – | 3.1 ± 0.5 µM | 100 µM | 130 to 132 °C | > 200 µM | > 1 ×10⁻⁶ cm/s | 3.19 ×10⁻⁶ cm/s | –
3 | COC(=O)c1ccc(CON=C(C)c2c(C)cc(=O)n(O)c2O)cc1 [Compound 47, 4′-((((1′-(1,2-Dihydroxy-4-methyl-6-oxo-1,6-dihydropyridin-5-yl)ethylidene)amino)oxy)methyl)methyl benzoate] | – | – | 1.1 ± 0.4 µM | 100 µM | 120 °C (dec.) | > 200 µM | > 1 ×10⁻⁶ cm/s | 5.52 ×10⁻⁶ cm/s | minimally cytotoxic
4 | CC(=NOCc1ccc([N+](=O)[O-])cc1)c1c(C)cc(=O)n(O)c1O [Compound 48, 1,6-Dihydroxy-4-methyl-5-(1-(((4-nitrobenzyl)oxy)imino)ethyl)pyridin-2(1H)-one] | – | – | 1.1 ± 0.2 µM | 99.6 ± 0.6 µM | 105 to 107 °C | > 200 µM | > 1 ×10⁻⁶ cm/s | 5.38 ×10⁻⁶ cm/s | minimally cytotoxic
5 | CC(=NOC(CNC(=O)c1ccc2ccccc2n1)c1cc(F)cc(F)c1)c1c(C)cc(=O)n(O)c1O (stereo not drawn) [Compound 49, N-(2-(3,5-Difluorophenyl)-2-(((1-(1,2-dihydroxy-4-methyl-6-oxo-1,6-dihydropyridin-3-yl)ethylidene)amino)oxy)ethyl)quinoline-2-carboxamide] | – | – | 3.5 ± 0.8 µM | 99.9 ± 0.2 µM | 108 to 110 °C (dec.) | > 200 µM | > 1 ×10⁻⁶ cm/s | 6.71 ×10⁻⁶ cm/s | –
6 | CC(=NOC(CNC(=O)c1nccs1)c1cc(F)cc(F)c1)c1c(C)cc(=O)n(O)c1O (stereo not drawn) [Compound 50, N-(2-(3,5-Difluorophenyl)-2-(((1-(1,2-dihydroxy-4-methyl-6-oxo-1,6-dihydropyridin-3-yl)ethylidene)amino)oxy)ethyl)thiazole-2-carboxamide] | – | – | 4 ± 1.5 µM | 100 µM | 117 to 119 °C (dec.) | > 200 µM | > 1 ×10⁻⁶ cm/s | 4.67 ×10⁻⁶ cm/s | –
7 | O=C(Nc1ccc2c(c1)C(=O)N(O)C(=O)C2C(=O)NCc1ccc(F)cc1)c1ccccc1 (stereo not drawn) [HID] | 1.4 µM | 99 µM | – | – | – | – | – | – | –
8 | NCc1ccc(-c2ccc(Cc3cc(=O)n(O)c4ncccc34)cc2)cc1 [HNO] | 3.4 µM | 7.1 µM | – | – | – | – | – | – | –
9 | C/C(=N\c1cccc(Br)c1)c1c(C)cc(=O)n(O)c1O [HPD imine] | 1.1 µM | 62.3 µM | – | – | – | – | – | – | –
10 | COC(=O)c1c2c(cc(O)c(=O)c1O)COC2=O [a-HT] | 0.5 µM | > 77 µM | – | – | – | – | – | – | –
